# Test results published in the NIST ThermoML archive (doi:10.1016/j.tca.2004.12.015).
# Numbers after ± are expanded uncertainties.
# Settings: Adiabatic calorimetry
smiles,measurement,setting,value
N#CCCNc1ccccc1 [3-anilinopropanenitrile],Triple point temperature,Crystal 1,323.5 ± 0.1 K
same,Triple point temperature,Crystal 2,310.63 ± 0.05 K
